The source made the active and inactive calls. The calls are words filed in the database; no cut-off is given here.

Data set [1] relates to HeLa. In words: Inhibition of F1F0-ATP synthase subunit C in human HeLa cells assessed as reduction of ionomycin-induced Ca2+ mediated mPTP opening at 1 uM preincubated for 30 secs followed by ionomycin addition by calcein-cobalt based assay relative to control. It counts as cell-based.
Data set [2] deals with HeLa. The data set is described as follows: Effect on mitochondrial morphology in human HeLa cells after 24 hrs by mtCherry staining based microscopic analysis. It counts as ADME, cell-based.
For data set [3], the system named is HeLa. The data set is described as follows: Cytotoxicity against human HeLa cells assessed as reduction in cell viability at 1 to 10 uM after 24 to 48 hrs by MTT assay. It counts as cell-based. In general terms: Formazan colour is commonly taken as a measure of viable cells.
The subject of data set [4] is HeLa. The data set is described as follows: Inhibition of F1F0-ATP synthase subunit C in human HeLa cells assessed as reduction of cytC release at 1 uM after 5 mins by immunoblot analysis. Format: cell-based. (In general: A western blot detects proteins with antibodies after separation by electrophoresis.)
Data set [5] has as its system HeLa. In words: Effect on mitochondrial calcium uptake in human HeLa cells after 24 hrs by aequorin luminometric analysis. Format: ADME, cell-based.
In data set [6] the test system is HeLa. In words: Effect on network volume of mitochondria in human HeLa cells after 24 hrs by calcin staining based microscopic analysis. It counts as ADME, cell-based.
For data set [7], the species on record is Mus musculus. In words: Inhibition of Inhibition of F1F0-ATP synthase subunit C in SV129 mouse liver mitochondria assessed as reduction of Ca2+ induced mPTP opening by measuring reduction in mitochondrial swelling at 1 uM measured after 10 mins relative to control.
The subject of data set [8] is HeLa. The data set is described as follows: Cytotoxicity against human HeLa cells assessed as reduction in cell viability at 1 to 10 uM after 72 hrs by MTT assay. Format: cell-based.
In data set [9] the test system is HeLa. In words: Reduction in mitochondrial ATP content in human HeLa cells expressing mitochondrially targeted Photinus pyralis luciferase at 1 uM by luciferin-luciferase assay. It counts as ADME, cell-based.
In data set [10] the test system is HeLa. In words: Inhibition of F1F0-ATP synthase subunit C in human HeLa cells assessed as reduction in apoptosis by TUNEL assay. Format: cell-based.
Data set [11] deals with HeLa. The data set is described as follows: Effect on number of mitochondria in human HeLa cells after 24 hrs by mtCherry staining based microscopic analysis. Format: ADME, cell-based.
Data set [12] concerns HeLa. In words: Effect on basal mitochondrial membrane potential in human HeLa cells by TMRM dye based fluorescence assay. Format: ADME, cell-based.
The test system of data set [13] is HeLa. In words: Reduction in mitochondrial ATP content in human HeLa cells expressing mitochondrially targeted Photinus pyralis luciferase at 1 uM in presence of 100 um histamine by luciferin-luciferase assay. It counts as ADME, cell-based.
In data set [14] the test system is HeLa. In words: Inhibition of F1F0-ATP synthase subunit C in human HeLa cells assessed as enzyme dimerization by measuring mitochondrial permeability transition at 1 uM by PLA based assay. It counts as cell-based.
Data set [15] deals with Heart. The data set is described as follows: Cardioprotective activity in Langendorff perfused Wistar rat heart model of ischemia-reperfusion injury model assessed as increase left ventricular developed pressure at 10 uM dosed during first 10 mins reflow. It counts as functional.
The subject of data set [16] is Heart. The data set is described as follows: Cardioprotective activity in Langendorff perfused Wistar rat heart model of ischemia-reperfusion injury model assessed as reduction of apoptosis at 10 uM dosed during first 10 mins reflow by TUNEL assay. It counts as functional.
The test system of data set [17] is Heart. In words: Cardioprotective activity in Langendorff perfused Wistar rat heart model of ischemia-reperfusion injury model assessed as reduction of coronary perfusion pressure at 10 uM dosed during first 10 mins reflow. Format: functional. Details: scale not given: the % may be the effect or the level left.
The subject of data set [18] is Heart. In words: Cardioprotective activity in Langendorff perfused Wistar rat heart model of ischemia-reperfusion injury model assessed as reduction of end diastolic pressure at 10 uM dosed during first 10 mins reflow. Details: scale not given: the % may be the effect or the level left. Format: functional.
The species entered for data set [19] is Homo sapiens. In words: Binding affinity of F1F0-ATP synthase c subunit in isolated mitochondria of human HeLa cells after 30 mins by UPLC-XEVO-TQD analysis.
The nature of data set [20]: Drug uptake in human HeLa cells mitochondrial fraction assessed as retention time by HPLC-HRMS analysis. It counts as ADME, mitochondria, Mitochondria.
Data set [21] is described as follows: Drug uptake in human HeLa cells mitochondrial fraction by HPLC-HRMS analysis. Format: ADME, mitochondria, Mitochondria.
A short description of data set [22]: Drug uptake in human HeLa cells endoplasmic reticulam fraction by HPLC-HRMS analysis. It counts as ADME, subcellular.
The test system of data set [23] is HeLa. The data set is described as follows: Binding affinity of F1F0-ATP synthase c subunit in human HeLa cells at 60 to 80 degC after 30 mins by cellular thermal shift assay. Format: cell-based.
The target of data set [24] is ATP synthase F(1) complex subunit alpha, mitochondrial (Homo sapiens) (UniProt P25705). The data set is described as follows: Binding affinity of ATP5A in human HeLa cells assessed as melting temperature after 30 mins by cellular thermal shift assay. Format: cell-based.
Chain of ATP synthase F(1) complex subunit alpha, mitochondrial (Homo sapiens) (P25705 whole entry, one chain of several): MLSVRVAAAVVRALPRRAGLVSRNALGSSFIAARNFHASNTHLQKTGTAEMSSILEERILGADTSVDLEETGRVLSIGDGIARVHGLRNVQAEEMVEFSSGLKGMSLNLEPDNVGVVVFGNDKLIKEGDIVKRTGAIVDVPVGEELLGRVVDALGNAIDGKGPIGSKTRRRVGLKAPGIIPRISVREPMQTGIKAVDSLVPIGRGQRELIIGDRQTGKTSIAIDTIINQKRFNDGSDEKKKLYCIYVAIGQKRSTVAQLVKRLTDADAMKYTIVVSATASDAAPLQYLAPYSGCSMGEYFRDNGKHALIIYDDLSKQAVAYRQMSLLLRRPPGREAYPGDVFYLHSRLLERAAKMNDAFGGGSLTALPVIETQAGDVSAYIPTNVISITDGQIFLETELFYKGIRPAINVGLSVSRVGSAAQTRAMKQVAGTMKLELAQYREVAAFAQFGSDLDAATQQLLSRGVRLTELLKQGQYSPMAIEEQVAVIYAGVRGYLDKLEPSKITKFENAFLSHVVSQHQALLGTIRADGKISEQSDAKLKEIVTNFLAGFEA
Data set [25] in a line: Drug uptake in human HeLa cells cytosolic fraction by HPLC-HRMS analysis. It counts as ADME, subcellular. Conditions: cytosol.

On to `O=C1N=CN(c2cccc(C(F)(F)F)c2)C12CCN(Cc1ccccc1)CC2`, for which the inhibition in data set [1] is 32.1%.
On to `O=C1NCN(c2cccc(C(F)(F)F)c2)C12CCN(Cc1ccccc1)CC2`, for which the Activity result was “Non-Toxic” in data set [2]; “Non-Toxic” in [3]; “Non-Toxic” in data set [5]; “Non-Toxic” in [6]; “Toxic” in [8]; “Non-Toxic” in data set [9]. The Activity entry in [11], in data set [12] and in [13] was “Non-Toxic” in each case. The inhibition result in data set [4], in [7], in [10] and in [14] was “Active” throughout. Besides, the inhibition in [1] is 65.5%.
On to `O=C1NCN(c2ccc(F)cc2)C12CCN(S(=O)(=O)c1ccc(F)cc1)CC2`, for which the inhibition in data set [1] is 9.1%.
On to `O=C1N=CN(c2ccc(Cl)cc2)C12CCN(Cc1ccccc1)CC2`, for which the Activity entry in data set [2] is listed as “Non-Toxic”; in data set [3] it was “Non-Toxic”; in data set [5] it was “Non-Toxic”; in data set [6], “Non-Toxic”; in [8] it was “Toxic”; in data set [9], “Toxic”. Also, the Activity result in [11], in data set [12] and in data set [13] was “Non-Toxic” throughout. The inhibition entry in data set [4], in data set [7] and in data set [10] was “Active” each time. Further, the inhibition in data set [1] is 57.4%.
As to `COc1ccc(N2C=NC(=O)C23CCN(Cc2ccccc2)CC3)cc1`, the inhibition in data set [1] is 43.8%.
For `O=C1N=CN(c2ccc(F)cc2)C12CCN(Cc1ccccc1)CC2`, the inhibition in [1] is 28.8%.
As to `O=C1NCN(c2ccccc2)C12CCN(S(=O)(=O)c1ccc(F)cc1)CC2`, in [1], the inhibition is 45.5%.
As for `Cc1ccc(N2CNC(=O)C23CCN(Cc2ccccc2)CC3)cc1`, the inhibition in [1] was 18.1%.
On to `CS(=O)(=O)N1CCC2(CC1)C(=O)NCN2c1ccccc1`, for which, in [1], the inhibition was 47.5%.
In the case of `O=C1N=CN(c2ccccc2)C12CCN(Cc1ccccc1)CC2`, in data set [1], the inhibition was 41.4%.
On the same count and under the same terms, the result for `O=C1NCN(c2ccc(Cl)cc2)C12CCN(Cc1ccccc1)CC2` reads 51.4%.
As for `O=C1NCN(c2ccccc2)C12CCN(S(=O)(=O)c1ccc(Cl)s1)CC2`, the Activity entry in data set [2] is “Non-Toxic”; in data set [3], “Non-Toxic”; in data set [15] it was 36.4%; in data set [5] it was “Non-Toxic”; in data set [6], “Non-Toxic”; in [8], “Toxic”. Besides, the Activity entry was “Non-Toxic” in data set [9]; “Non-Toxic” in [11]; 17.5% in data set [17]; “Non-Toxic” in [12]; “Non-Toxic” in [13]; 72% in [18]. Also, the inhibition result in data set [4], in data set [7], in data set [10] and in data set [14] was “Active” throughout. Besides, the inhibition in data set [1] was 66.8%. In data set [16], the result was Active.
Consider `Cc1ccc(S(=O)(=O)N2CCC3(CC2)C(=O)NCN3c2ccccc2)cc1`, for which the outcome in data set [19] and in [23] was Active. For the same compound, in data set [20], the Retention_time amounted to 8.2 min. Besides, the inhibition entry in data set [7] was “Active”. In addition, in data set [1], the inhibition is 30.7 to 50%. The results for the Drug uptake result in [21], in data set [22] and in data set [25] were “Active”, “Not Active” and “Not Active”, respectively. Besides, the Activity result in data set [9] and in data set [13] was “Toxic” throughout. The result in data set [24] was inactive.
On to `O=C(Nc1ccccc1)N1CCC2(CC1)C(=O)NCN2c1ccccc1`, for which the inhibition result in data set [1] is “inactive”.
Consider `Cc1ccc(N2C=NC(=O)C23CCN(Cc2ccccc2)CC3)cc1`, for which the inhibition in [1] was 18.7%.
Turning to `O=C1NCN(c2ccccc2)C12CCN(Cc1ccccc1)CC2`, the inhibition in data set [1] is 36.8%.
As for `CCC1/C=C/C=C/C[C@H](C)[C@@H](O)[C@](C)(O)C(=O)[C@@H](C)[C@H](O)[C@@H](C)C(=O)[C@H](C)[C@@H](O)[C@H](C)/C=C/C(=O)OC2[C@@H](C)C(CC1)OC1(CC[C@@H](C)C(C[C@H](C)O)O1)[C@@H]2C` (stereo not given in full), the Drug uptake result in data set [21], in [22] and in [25] was “Active” in each case.
Take `CC(C)c1ccc(N2C=NC(=O)C23CCN(Cc2ccccc2)CC3)cc1`: in data set [1], the inhibition is 6.5%.
For the compound `O=C1NCN(c2ccc(F)cc2)C12CCN(S(=O)(=O)c1ccc(Cl)s1)CC2`, the inhibition in [1] is 12.6%.
Take `CC(C)c1ccc(N2CNC(=O)C23CCN(Cc2ccccc2)CC3)cc1`: in data set [1], the inhibition was 20%.
On the same count and under the same terms, the result for `O=C1NCN(c2ccc(F)cc2)C12CCN(Cc1ccccc1)CC2` reads 42.9%; that for `O=C(NC1CCCCC1)N1CCC2(CC1)C(=O)NCN2c1ccccc1`, 51.3%; that for `O=C1NCN(c2ccccc2)C12CCN(C(=S)NC1CCCCC1)CC2`, 33.6%.
As for `COc1ccc(N2CNC(=O)C23CCN(Cc2ccccc2)CC3)cc1`, the inhibition in [1] is 26.2%.
For the compound `O=C(c1ccccc1)N1CCC2(CC1)C(=O)NCN2c1ccccc1`, the inhibition in data set [1] was 43.9%.
Regarding `CC(=O)N1CCC2(CC1)C(=O)NCN2c1ccccc1`, the inhibition in data set [1] was 47.9%.

As usually defined, the inhibition is the relative decrease from the control value, in per cent.

Values taken from ChEMBL document CHEMBL4152345, “Discovery of Novel 1,3,8-Triazaspiro[4.5]decane Derivatives That Target the c Subunit of F1/FO-Adenosine Triphosphate (ATP) Synthase for the Treatment of Reperfusion Damage in Myocardial Infarction” (J Med Chem, 2018).
